Experimental data published in patent US4006164A, “4-Aryl-1,2,3,4-tetrahydropyrrolo[3,4-b]indoles” (Pfizer Inc., priority 1975, dated 1977).
Read-outs that look alike come from different tables or passages of the source.

Tested on: amphetamine-induced symptoms
Assay: antagonism of amphetamine-induced symptoms in rats (blocking of amphetamine behavior of cage movement)
Type: in vivo
Conditions: Rattus norvegicus, ip
Text: The tranquilizing agents of the present invention are characterized by relief of such schizophrenic manifestations in humans as hallucinations, hostility, suspiciousness, emotional and social withdrawal, anxiety, agitation and tension. Standard procedures of detecting and comparing tranquilizing activity of compounds in this series and for which there is an excellent correlation with human efficacy is the antagonism of amphetamine-induced symptoms in rats test as taught by A. Weissman, et al., J. Pharmacol. Exp. Ther., 151, 339 (1966) and by Quinton, et al., Nature, 200, 178 (1963).
The effects of the compounds of the present invention on prominent amphetamine-induced symptoms were studied in rats by a rating scale modeled after the one reported by Quinton and Halliwell; and Weissman. Groups of five rats were placed in a covered plastic cage measuring approximately 26 cm. × 42 cm. × 16 cm. After a brief period of acclimation in the cage, the rats in each group were treated intraperitoneally (i.p.) with the test compound. […] On the basis of dose-response data after amphetamine it was possible to determine the effective dose of the compound necessary to antagonize or block the characteristic amphetamine behavior of cage movement for fifty percent of the rats tested (ED50). The time of rating chosen coincides with the peak action of amphetamine which is 60-80 min. after treatment with this agent.
Employing the above-described procedure, the following compounds were tested for their ability to block the behavior effects to amphetamine, the results being reported as the ED50 in mg./kg. at the indicated times: […]

[1] = test compound i.p., d-amphetamine sulfate 5 mg./kg. i.p. 1 hr. later, rated one hour after amphetamine, read-out: ED50, 1 hr.
[2] = test compound i.p., d-amphetamine sulfate 5 mg./kg. i.p. 5 hrs. later, rated one hour after amphetamine, read-out: ED50, 5 hrs.

| SMILES | ED50 (1 h, read-out: ED50, 1 hr.) | ED50 [1] | ED50 [2] |
| --- | --- | --- | --- |
| CN(C)CCCN1c2ccccc2Sc2ccc(Cl)cc21 [chlorpromazine, reference compound] | > 10 mg/kg | – | – |
| OC(CCCN1Cc2c(n(-c3ccc(F)cc3)c3ccc(F)cc23)C1)c1ccc(F)cc1 (centres unmarked) | – | 1 to 3.2 mg/kg | 1 to 3.2 mg/kg |
| CN1Cc2c(n(-c3ccc(F)cc3)c3ccc(F)cc23)C1 [X = F, Z = F, R = CH3, 7-Fluoro-4-(p-fluorophenyl)-2-methyl-1,2,3,4-tetrahydropyrrolo[3,4-b]indole] | – | 3.2 to 5.6 mg/kg | > 10 mg/kg |
